Laboratory results: PubChem BioAssay AID1259420 (Broad Institute, 2018)
Several values for one entry are separate records, joined by “and”; a condition that tells them apart may be missing. Equal values may be shown once. Records with an inconclusive call do not appear. Activity calls are given as the source filed them. No rule for the calls is given here.

Each compound was assayed on Toxoplasma gondii growth in host cells, no IFN-gamma (assay: T. gondii intracellular growth, IFN-gamma absent, dose response, cell-based (AID 1259420);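 also: host cells were HeLa; final incubation lasted 72 hours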).
O=S(=O)(c1ccccc1F)N1CC[C@@H]2[C@@H](CO)Nc3ccc(C4=CCCCC4)cc3[C@@H]21 showed an AC50 of 11.8 µM. For C/C=C/c1ccc(C2[C@@H]3CN(S(=O)(=O)c4ccccc4F)C[C@H]2N3)cc1 (stereo not given in full), the AC50 was 20.7 µM. COc1ccccc1-c1ccc(C2[C@H]3CNC[C@@H]2N3S(=O)(=O)c2ccc(F)cc2)cc1 (stereo not given in full) was tested, and the AC50 was > 20 µM (inactive). In the case of CCCCN(C)C(=O)c1cnc(-c2noc3cc(NCC4CC4)ccc23)s1, the AC50 was 20.4 µM. In the case of CC(C)NC(=O)N1CCC2(CC1)OCCN(CCO)c1ccccc12, the AC50 was > 39 µM (inactive). For C[C@H](CO)N1C[C@H](C)[C@H](CN(C)C(=O)Nc2ccc(C(F)(F)F)cc2)Oc2c(NC(=O)c3ccc(-c4nccs4)cc3)cccc2C1=O, the AC50 was 9.48 µM. COc1cccc(S(=O)(=O)N2CCCCN3[C@@H](CO)[C@@H](c4ccc(C#CCC(C)C)cc4)[C@@H]3C2)c1 was tested, and the AC50 was 12.1 µM and 10.1 µM. OC(c1cc(C(F)(F)F)nc2c(C(F)(F)F)cccc12)C1CCCCN1 (stereo not given) was tested, and the AC50 was 20.4 µM. COc1ccc(NC(=O)N2CC[C@@H]3[C@H]2c2cc(C4=CCCCC4)ccc2N(C)[C@H]3CO)cc1 was tested, and the AC50 was 17.8 µM. For COc1ccc(C#Cc2ccc([C@@H]3[C@@H](CO)N4C(=O)CN(C(=O)NC(C)C)C[C@@H]34)cc2)cc1, the AC50 was > 39 µM (inactive). For COc1ccc(-c2ccc(C3[C@@H]4CN(C(=O)c5ccc(F)cc5)C[C@H]3N4)cc2)cc1 (stereo not given in full), the AC50 was 24.4 µM and 13.3 µM. COc1ccc(-c2ccc3c(c2)[C@H]2[C@H](CCN2C(=O)c2cccc(F)c2)[C@H](CO)N3)cc1 was tested, and the AC50 was 14.3 µM. In the case of N#Cc1cccc(-c2ccc(C3[C@@H]4CN(C(=O)Nc5ccc(C(F)(F)F)cc5)C[C@H]3N4)cc2)c1 (stereo not given in full), the AC50 was 14.4 µM and 14.6 µM. In the case of COCCN1CCc2c(cnc(-c3cccnc3)c2C(=O)O)C1, the AC50 was > 39 µM (inactive). With O=C(Nc1cccnc1)c1cc(-c2cnc(-c3ccccc3)nc2)cn1CC1CC1 the AC50 was 27.9 µM and 19.8 µM. For CC(=O)NC1=NN(C(C)=O)C(C)(c2ccccc2)S1 (stereo not given), the AC50 was > 20 µM (inactive). In the case of O=C(NC1CCC12CCN(Cc1ccoc1)CC2)c1cnccn1 (stereo not given), the AC50 was > 39 µM (inactive). In the case of COc1cccc(C#Cc2ccc([C@@H]3[C@H](C#N)N(C(=O)c4ccccn4)[C@H]3CO)cc2)c1, the AC50 was 19.9 µM. CCCC(C)c1c(-c2ccccc2)ncn1Cc1cnc(C)cn1 (stereo not given) showed an AC50 of 36.1 µM. Compound COc1ccccc1NC(=O)N1C[C@@H]2N[C@H](C1)C2c1ccc(/C=C/c2ccccc2)cc1 (stereo not given in full) has an AC50 of 6.68 µM. With COc1ccc(S(=O)(=O)N2CCCCN3[C@H](CO)[C@H](c4ccc(C#CCC(C)C)cc4)[C@H]3C2)cc1 the AC50 was 8.14 µM and 12.7 µM. Work on C[C@H](O[C@H]1OCCN(Cc2n[nH]c(=O)[nH]2)[C@H]1c1ccc(F)cc1)c1cc(C(F)(F)F)cc(C(F)(F)F)c1 yielded an AC50 of 21.5 µM. For COc1ccc(C#Cc2ccc([C@@H]3[C@H]4CN(C(=O)NC(C)C)CC(=O)N4[C@H]3CO)cc2)cc1, the AC50 was > 39 µM (inactive). For COc1ccccc1NC(=O)N1CC(=O)N2[C@H](CO)[C@H](c3ccc(C#CC(C)C)cc3)[C@H]2C1, the AC50 was > 39 µM (inactive). In the case of CCc1cnc(N2[C@H](C#N)[C@@H](c3ccc(C#Cc4ccccc4F)cc3)[C@@H]2CO)s1, the AC50 was 16.3 µM. COc1cccc(NC(=O)N2CC(=O)N3[C@H](CO)[C@H](c4ccc(C#CCC5CCCC5)cc4)[C@@H]3C2)c1 gave an AC50 of 15.9 µM. Compound CN(C)C(=O)c1cccc(-c2ccc3c(c2)[C@@H]2[C@@H](CCN2C(=O)Cc2ccccc2)[C@@H](CO)N3)c1 has an AC50 of 21.7 µM. In the case of COc1cccc(NC(=O)N2CC(=O)N3[C@H](CO)[C@H](c4ccc(C#CCC5CCCC5)cc4)[C@H]3C2)c1, the AC50 was 13.9 µM and 16.2 µM. With Clc1cncc(OC[C@H]2CO[C@@H]3CN(Cc4cccs4)C[C@@H]23)c1 the AC50 was > 39 µM (inactive). O=C(CCCCCNc1nc(=S)[nH]c2ccccc12)N1CCC(O)(c2cccc(C(F)(F)F)c2)CC1 was tested, and the AC50 was > 39 µM (inactive). In the case of N#Cc1cccc(C(=O)N2CCC3C2CC(=O)N3Cc2ccncc2)c1 (stereo not given), the AC50 was > 20 µM (inactive). In the case of CN1C(=O)c2cc(NC(=O)c3cccc(F)c3)ccc2OC[C@@H]2O[C@H](CC(=O)NCC3CCCCC3)CC[C@@H]21, the AC50 was > 39 µM (inactive). With COc1ccccc1NC(=O)N1C[C@H](O)COC[C@@H]2O[C@H](CC(=O)N3CCC(Cc4ccccc4)CC3)CC[C@H]21 the AC50 was 37.7 µM. CC(C)N1CCC2(CC1)CC(COCC1CC1)N(c1ncccn1)C2 (stereo not given) gave an AC50 of 35.9 µM. In the case of CN1C(=O)c2cc(NC(=O)Cc3cccs3)ccc2OC[C@H]2O[C@@H](CC(=O)NCc3ccc(-c4ccccc4)cc3)CC[C@@H]21, the AC50 was 20 µM and > 39 µM (inactive). Compound COc1cccc(-c2nc3c(s2)CN(S(=O)(=O)c2ccc(C)cc2)CC3)c1 has an AC50 of 34 µM. CCCc1ccc(S(=O)(=O)N2CCC[C@@H]2C(=O)NCCc2csc(-c3ccccc3)n2)cc1 was tested, and the AC50 was 18.7 µM. In the case of CCCCCCCCCCCCCCCC[N+](C)(C)C, the AC50 was 15.3 µM. O=C(Nc1ccc(F)cc1)N1CC(=O)N2[C@H](CO)[C@H](c3ccc(-c4cccc(F)c4)cc3)[C@H]2C1 showed an AC50 of 31.1 µM. With Cc1nc2ccccn2c1CN(C)Cc1cnn(-c2ccccc2)c1 the AC50 was 12.2 µM. OC[C@@H]1Nc2ccc(-c3cccc(F)c3)cc2[C@H]2[C@@H]1CCN2Cc1ccc(F)cc1 was tested, and the AC50 was > 20 µM (inactive). Work on C[C@@H]1CN([C@@H](C)CO)C(=O)Cc2cc(NC(=O)C3CCCCC3)ccc2O[C@@H]1CN(C)Cc1ccc(Cl)c(Cl)c1 yielded an AC50 of 13.9 µM. In the case of CC(C)NC(=O)N1CC(=O)N2[C@@H](CO)[C@H](c3ccc(/C=C/c4ccccc4)cc3)[C@@H]2C1, the AC50 was > 39 µM (inactive). COc1ccccc1-c1ccc2c(c1)[C@H]1[C@H](CCN1C(=O)C1CCC1)[C@H](CO)N2 showed an AC50 of 13 µM. For COc1cccc(-c2ccc3c(c2)[C@H]2[C@H](CCN2S(=O)(=O)c2ccccc2F)[C@@H](CO)N3)c1, the AC50 was 11.5 µM and 6.32 µM. With Cc1cc(C(=O)Nc2ccc3c(c2)C(=O)N(C)[C@H]2CC[C@H](CC(=O)NCc4ccc(-c5ccccc5)cc4)O[C@H]2CO3)no1 the AC50 was 14 µM. Nc1ncnc2c1ncn2[C@@H]1O[C@H](C[C@@H](N)CC[C@H](N)C(=O)O)[C@@H](O)[C@H]1O gave an AC50 of 1.38 µM. Compound CN(C)C(=O)c1ccc(-c2ccc3c(c2)[C@@H]2[C@@H](CCN2C(=O)C2CCCC2)[C@H](CO)N3C)cc1 has an AC50 of 10.9 µM. CC(C)NC(=O)[C@H]1C[C@H]2CCN(CCOCc3ccccc3)C[C@@H]2O1 was tested, and the AC50 was > 39 µM (inactive). Compound CN1c2ccc(-c3ccccc3)cc2[C@@H]2[C@@H](CCN2C(=O)CC2CC2)[C@@H]1CO has an AC50 of 25.3 µM. Work on COc1ccc(-c2ccc3c(c2)[C@H]2[C@H](CCN2C(=O)c2cccc(F)c2)[C@@H](CO)N3)cc1 yielded an AC50 of 10.6 µM. C/C=C/c1ccc(C2[C@H]3CNC[C@@H]2N3Cc2cc(F)ccc2F)cc1 (stereo not given in full) was tested, and the AC50 was 11.4 µM. In the case of CCN1CCN(Cc2ccc(Nc3nc(-c4ccc(OC)cc4)nc4ccccc34)cc2)CC1, the AC50 was 13.5 µM. COc1cccc(-c2ccc3c(c2)[C@@H]2[C@@H](CCN2S(=O)(=O)c2ccccc2F)[C@@H](CO)N3)c1 was tested, and the AC50 was 16 µM. For N#Cc1cccc(-c2ccc3c(c2)[C@@H]2[C@@H](CCN2S(=O)(=O)c2ccc(F)cc2)[C@H](CO)N3)c1, the AC50 was 10.1 µM. For N#C[C@@H]1[C@@H](c2ccc(C#Cc3cccnc3)cc2)[C@@H](CO)N1C(=O)NC1CCCCC1, the AC50 was > 39 µM (inactive). For O=S(=O)(c1ccccc1F)N1CCC(c2nc3ccc(-c4ccncc4)cn3n2)CC1, the AC50 was > 39 µM (inactive). For C/C=C/c1ccc([C@H]2[C@@H](CO)N3CCCCN(S(=O)(=O)c4ccc(OC)cc4)C[C@@H]23)cc1, the AC50 was 32.2 µM. For Cc1ccccc1S(=O)(=O)N1CCCCN2[C@H](CO)[C@H](c3ccc(C#CCN(C)C)cc3)[C@H]2C1, the AC50 was 33.7 µM. O=C(Cc1ccc(Cl)cc1)N1CC2(CCN(Cc3ccc(C(F)(F)F)cc3)CC2)C1 was tested, and the AC50 was > 39 µM (inactive).
